Reference: ChEMBL document CHEMBL5113487, “Novel anilinopyrimidine derivatives as potential EGFRT790M/C797S Inhibitors: Design, Synthesis, biological activity study” (Bioorg Med Chem, 2022)

Columns and labels:
[1] = system: BaF3; test: Antiproliferative activity against mouse BaF3 cells harboring del18/T790M/C797S triple mutant assessed as cell growth inhibition incubated for 72 hrs by cell titre glo luminescence assay; format: functional, cell-based; conditions: BaF3, 72 h
[2] = Cmax in mouse at 5 mg/kg measured upto 24 hrs by LC-MS/MS analysis; format: ADME, organism-based; design: time < 24 hrs, dose 5 mg/kg; conditions: in vivo
[3] = AUC(0 to t) in mouse at 5 mg/kg measured upto 24 hrs by LC-MS/MS analysis; format: ADME, organism-based; design: time < 24 hrs, dose 5 mg/kg; conditions: in vivo
[4] = AUC(0 to infinity) in mouse at 5 mg/kg measured upto 24 hrs by LC-MS/MS analysis; format: ADME, organism-based; design: dose 5 mg/kg, time < 24 hrs; conditions: in vivo
[5] = Half-life in mouse at 5 mg/kg measured upto 24 hrs by LC-MS/MS analysis; format: ADME, organism-based; conditions: in vivo
[6] = MRT in mouse at 5 mg/kg measured upto 24 hrs by LC-MS/MS analysis; format: ADME, organism-based; conditions: in vivo
[7] = target: Epidermal growth factor receptor (Homo sapiens, UniProt P00533, C797S/EX18DEL/T790M); test: Inhibition of EGFR del18/T790M/C797S triple mutant (unknown origin) using TK as substrate incubated for 120 mins in the presence of ATP by HTRF assay
[8] = target: Epidermal growth factor receptor (Homo sapiens, UniProt P00533, C797S/L858R/T790M); test: Inhibition of EGFR L858R/T790M/C797S triple mutant (unknown origin) using TK as substrate incubated for 120 mins in the presence of ATP by HTRF assay
[9] = target: Epidermal growth factor receptor (Homo sapiens, UniProt P00533); test: Inhibition of wild type EGFR (unknown origin) using TK as substrate incubated for 120 mins in the presence of ATP by HTRF assay
[10] = system: A-431; test: Antiproliferative activity against human A-431 cells assessed as cell growth inhibition incubated for 72 hrs by cell titre glo luminescence assay; format: functional, cell-based; conditions: A-431, 72 h
[11] = system: Epidermal growth factor receptor (Homo sapiens), P00533 [UNDEFINED MUTATION]; test: Potency index, ratio of brigatinib IC50 to test compound IC50 for inhibition of EGFR del18/T790M/C797S triple mutant (unknown origin) using TK as substrate incubated for 120 mins in the presence of ATP by HTRF assay
[12] = system: Epidermal growth factor receptor (Homo sapiens), P00533 [L858R,T790M,C797S]; test: Potency index, ratio of brigatinib IC50 to test compound IC50 for inhibition of EGFR L858R/T790M/C797S triple mutant (unknown origin) using TK as substrate incubated for 120 mins in the presence of ATP by HTRF assay

| SMILES | IC50 [1] [nM] | Cmax [2] [ng/mL] | AUC(0-t) at 24 h [3] [ng·h/mL] | AUC(0-inf) [4] [ng·h/mL] | half-life [5] [h] | MRT [6] [h] | IC50 [7] [nM] | IC50 [8] [nM] | IC50 [9] [nM] | IC50 [10] [nM] | Ratio IC50 [11] | Ratio IC50 [12] |
| --- | --- | --- | --- | --- | --- | --- | --- | --- | --- | --- | --- | --- |
| CCOC1CN(C2CCN(c3cc(OC)c(Nc4ncc(Br)c(Nc5ccc6c(c5P(C)(C)=O)OCCO6)n4)cc3C)CC2)C1 | 32 | 2030 | 25200 | 25300 | 3.2 | 6.1 | – | – | – | – | – | – |
| CCc1cc(Nc2ncc(Br)c(Nc3ccc4nccnc4c3P(C)(C)=O)n2)c(OC)cc1N1CCC(N2CCCN(C)CC2)CC1 | 9 | – | – | – | – | – | 0.83 | 0.27 | 3000 | 490 | – | – |
| COc1cc(N2CCC(N3CCCOCC3)CC2)c(C)cc1Nc1ncc(Br)c(Nc2ccc3c(c2P(C)(C)=O)OCCO3)n1 | 20 | – | – | – | – | – | 0.13 | 0.19 | – | – | – | – |
| CCc1cc(Nc2ncc(Br)c(Nc3ccc4c(c3P(C)(C)=O)OCO4)n2)c(OC)cc1N1CCC(N2CC(N(C)C)C2)CC1 | 14 | 1470 | 12300 | 12500 | 4.2 | 6 | 0.4 | 0.15 | – | – | – | – |
| CCc1cc(Nc2ncc(Br)c(Nc3ccc4c(c3P(C)(C)=O)OCCO4)n2)c(OC)cc1N1CCC(N2CC(N(C)C)C2)CC1 | 8 | 2110 | 21000 | 21400 | 4 | 6.3 | 0.08 | 0.08 | – | – | – | – |
| CCc1cc(Nc2ncc(Br)c(Nc3ccc4c(c3P(C)(C)=O)OCCO4)n2)c(OC)cc1N1CCC(N2CC(COC)C2)CC1 | 12 | – | – | – | – | – | 0.15 | 0.12 | – | – | – | – |
| CCN(C)C1CN(C2CCN(c3cc(OC)c(Nc4ncc(Br)c(Nc5ccc6c(c5P(C)(C)=O)OCCO6)n4)cc3C)CC2)C1 | 35 | – | – | – | – | – | – | 0.28 | > 500 | – | – | – |
| COc1cc(N2CCC(N3CCCN(C)CC3)CC2)c(C)cc1Nc1ncc(Br)c(Nc2ccc3c(c2P(C)(C)=O)OCCO3)n1 | 24 | – | – | – | – | – | 0.05 | 0.1 | – | – | – | – |
| CCc1cc(Nc2ncc(Br)c(Nc3ccn4ncnc4c3P(C)(C)=O)n2)c(OC)cc1N1CCC(N2CCN(CC)CC2)CC1 | 34 | – | – | – | – | – | 0.1 | 0.67 | > 500 | 731 | – | – |
| COc1cc(N2CCC(N3CC(N(C)C)C3)CC2)c(C)cc1Nc1ncc(Br)c(Nc2ccc3c(c2P(C)(C)=O)OCCO3)n1 | 13 | 1680 | 16400 | 16500 | 5.6 | 6 | 0.3 | 0.22 | – | – | – | – |
| CCO[C@@H]1CCN(C2CCN(c3cc(OC)c(Nc4ncc(Br)c(Nc5ccc6c(c5P(C)(C)=O)OCCO6)n4)cc3C)CC2)C1 | 30 | 1260 | 11100 | 11200 | 3.5 | 5.5 | 0.28 | 0.41 | – | – | – | – |
| CCOC1CN(C2CCN(c3cc(OC)c(Nc4ncc(Br)c(Nc5ccc6nccnc6c5P(C)(C)=O)n4)cc3C)CC2)C1 | 29 | – | – | – | – | – | 0.65 | 0.43 | 652 | 422 | – | – |
| CCc1cc(Nc2ncc(Br)c(Nc3ccc4nccnc4c3P(C)(C)=O)n2)c(OC)cc1N1CCC(N2CC(N(C)C)C2)CC1 | 16 | – | – | – | – | – | 0.11 | 0.08 | – | – | 7 | 40 |
| COc1cc(N2CCC(N3CC[C@H](N(C)C)C3)CC2)c(C)cc1Nc1ncc(Br)c(Nc2ccc3c(c2P(C)(C)=O)OCCO3)n1 | 28 | – | – | – | – | – | 0.12 | 0.15 | – | – | – | – |
| CCc1cc(Nc2ncc(Br)c(Nc3ccc4ncnn4c3P(C)(C)=O)n2)c(OC)cc1N1CCC(N2CC(COC)C2)CC1 | 37 | – | – | – | – | – | 0.1 | 0.84 | > 500 | 702 | – | – |
| COc1cc(N2CCC(N3CC(N(C)C)C3)CC2)c(C)cc1Nc1ncc(Br)c(Nc2ccc3nccnc3c2P(C)(C)=O)n1 | 13 | – | – | – | – | – | 0.06 | 0.09 | – | – | – | – |
| CCc1cc(Nc2ncc(Br)c(Nc3ccn4ncnc4c3P(C)(C)=O)n2)c(OC)cc1N1CCC(N2CCOCC2)CC1 | 40 | – | – | – | – | – | 0.18 | 0.93 | > 500 | 1300 | – | – |
| CCc1cc(Nc2ncc(Br)c(Nc3ccc4c(c3P(C)(C)=O)OCCO4)n2)c(OC)cc1N1CCC(N2CC(CC#N)C2)CC1 | 7 | – | – | – | – | – | 0.49 | 0.41 | 416 | – | – | – |
| CCOC1CN(C2CCN(c3cc(OC)c(Nc4ncc(Br)c(Nc5ccc6ncnn6c5P(C)(C)=O)n4)cc3CC)CC2)C1 | 44 | – | – | – | – | – | 0.9 | 0.67 | > 500 | 1010 | – | – |
